Laboratory results reported in PMC12210912, “Pharmacologic properties and inhibitory activity of 6-azasteroids against Mycobacterium leprae in vivo and in vitro” (Microbiology Spectrum, 2025).

Assays:
[1] = test system: M. leprae; set-up: method as in PMID 34395315; settings: cited from earlier work
[2] = test system: human type 1 5α-reductase; set-up: method as in PMID 8057283; settings: cited from earlier work
[3] = target: T1, CYP3A4 (Homo sapiens, UniProt P08684); assay: inhibition of CYP3A4 enzymatic activity in human liver microsomes; assay type: in vitro ADME
T1 construct: Human liver microsomes (150 donors pooled, male & female, Corning, Cat# 452117) were used as a source of CYP3A4; tissue Corning 452117; host or cells: pooled human liver microsomes (150 donors)
T1 sequence (P08684 whole entry): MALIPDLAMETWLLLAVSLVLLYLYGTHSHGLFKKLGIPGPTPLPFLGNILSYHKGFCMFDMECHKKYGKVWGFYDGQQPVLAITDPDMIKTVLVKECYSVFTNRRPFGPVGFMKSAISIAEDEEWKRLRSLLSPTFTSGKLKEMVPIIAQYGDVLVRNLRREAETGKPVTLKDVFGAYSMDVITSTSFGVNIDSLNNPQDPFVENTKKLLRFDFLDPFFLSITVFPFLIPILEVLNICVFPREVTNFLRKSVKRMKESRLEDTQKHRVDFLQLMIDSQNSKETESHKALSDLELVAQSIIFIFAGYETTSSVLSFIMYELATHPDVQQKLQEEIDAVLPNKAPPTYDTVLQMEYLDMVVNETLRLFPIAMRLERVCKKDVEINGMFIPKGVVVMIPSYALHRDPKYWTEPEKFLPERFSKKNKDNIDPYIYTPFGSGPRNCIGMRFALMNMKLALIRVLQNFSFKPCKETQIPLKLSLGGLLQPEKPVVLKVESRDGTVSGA
Description: Inhibition of CYP3A4 enzymatic activity was carried out following a standard protocol by Pharmaron, Inc. Human liver microsomes (150 donors pooled, male & female, Corning, Cat# 452117) were used as a source of CYP3A4. The final concentration of human liver microsomes was 0.2 mg/mL. CYP3A4 was tested with testosterone (stock: 10 mM, final: 50 µM) or midazolam (stock: 1 mM, final: 5 µM) as substrate. Aliquots (1 µL) of test compounds (20 µM final concentration), positive control compound ketoconazole (20 µM final concentration), or buffer blank were transferred to a multi-well plate. The reaction was initiated with the addition of 20 µL of 10 mM NADPH solution to provide a final concentration of 1 mM in a 200 µL total volume and carried out at 37°C. The reaction was stopped by the addition of 1.5 volumes of methanol with incubation solution (100 nM alprazolam, 200 nM imipramine, 200 nM labetalol, and 2 µM ketoprofen) at designated time points (5 min midazolam-mediated CYP3A4; 10 min testosterone-mediated CYP3A4). The plate was centrifuged at 3,220 × g for 40 min to precipitate protein. Aliquots of 100 µL of the supernatant were diluted with 100 µL ultra-pure H2O, and the mixture was used for LC-MS/MS analysis to determine concentration of product (hydroxymidazolam or hydroxytestosterone) formed. The % inhibition was calculated by comparison with no inhibitor control. All experiments were performed in duplicate.

Row | Structure (SMILES) | intracellular viability of M. leprae in vitro [1] | inhibition of human type 1 5α-reductase [2] | % inhibition observed, Cyp3A4 Midazolam Isoform ([3]; 20 µM, midazolam substrate) | % inhibition observed, Cyp3A4 Testosterone Isoform ([3]; 20 µM, testosterone substrate) | inhibition at 5 min, 20 µM ([3]; both sexes, probe midazolam (5 µM), midazolam substrate, read-out: % inhibition observed, Cyp3A4 Midazolam Isoform) [%] | inhibition at 10 min, 20 µM ([3]; both sexes, probe testosterone (50 µM), testosterone substrate, read-out: % inhibition observed, Cyp3A4 Testosterone Isoform) [%]
1 | CC(C)(C)c1ccc(C(C)(C)C)c(NC(=O)C2CCC3C4CNC5=CC(=O)CC[C@]5(C)C4CC[C@]23C)c1 (stereo partly drawn) [Compound 1] | reduce the intracellular viability of M. leprae in vitro | – | – | – | – | –
2 | C[C@]12CCC3C(CNC4=CC(=O)CC[C@@]43C)C1CCC2C(=O)NC(c1ccc(F)cc1)c1ccc(F)cc1 (stereo partly drawn) [Compound 5] | – | nanomolar inhibitor | strongly inhibits | strongly inhibits | 79 | 68
